# Assay results as given in the PolyMetriX glass transition set.
# ± gives the standard deviation of the reports.
row,glass transition temperature,SMILES
1,254.00 °C,*c1ccc2c(c1)C(=O)N(c1ccc(OCCOc3ccc(N4C(=O)c5ccc(C(*)(C(F)(F)F)C(F)(F)F)cc5C4=O)cc3)cc1)C2=O (repeat unit)
2,-66.00 °C,*OC(C)CCC(C)OC(=O)CCCCCCCCC(*)=O (repeat unit)
3,33.00 °C,*CCCCCOC(=O)NCCCCCCNC(=O)O* (repeat unit)
4,224.00 °C,*CCC(=O)Nc1ccc(Oc2cccc(NC(=O)CCN3C(=O)c4ccc(C(=O)c5ccc6c(c5)C(=O)N(*)C6=O)cc4C3=O)c2)cc1 (repeat unit)
5,376.00 °C,*c1ccc(-c2cnc3ccc(-c4ccc5nc(*)cnc5c4)cc3n2)cc1 (repeat unit)
6,64.00 °C,*CCCCCCCCCCc1nc2ccc(-c3ccc4nc(*)oc4c3)cc2o1 (repeat unit)
7,110.00 °C,*CC(COc1ccc(C(C)(c2ccccc2)c2ccc(O*)cc2)cc1)OC(C)=O (repeat unit)
8,-31.00 °C,*CCOCCOCCOCCOCCOCCOC(=O)NCCCCCCNC(=O)O* (repeat unit)
9,-62.50 °C,*CCCCOC(=O)CCCCCCCC(=O)O* (repeat unit)
10,158.50 °C,*c1ccc(Oc2ccc(-c3ccc(Oc4ccc(N5C(=O)CC(=O)N(*)C5=S)cc4)cc3)cc2)cc1 (repeat unit)
11,46.00 °C,*CC(*)(C)C(=O)OCCCCCCOc1ccc(C(=O)Oc2ccc(/N=N/c3ccccc3)c3ccccc23)cc1 (repeat unit)
12,210.00 °C,*c1ccc(Oc2ccc(N3C(=O)c4ccc(Oc5ccc(C(=O)c6ccc(Oc7ccc8c(c7)C(=O)N(*)C8=O)cc6)cc5)cc4C3=O)cc2)cc1 (repeat unit)
13,112.00 °C,*CCCOc1ccc(OCCCc2nnc(-c3ccc(-c4nnc(*)o4)cc3)o2)c(C)c1 (repeat unit)
14,256.90 °C,*c1cc(C(=O)NCCCCCC)cc(N2C(=O)c3ccc(-c4ccc5c(c4)C(=O)N(*)C5=O)cc3C2=O)c1 (repeat unit)
15,320.00 °C,*C(=O)c1ccc2c(c1)C(=O)N(c1ccc(C3(C)CC(C)(C)c4ccc(N5C(=O)c6ccc(*)cc6C5=O)cc43)cc1)C2=O (repeat unit)
16,345.00 °C,*c1ccc(-c2ccc(-c3nc4ccccc4c(-c4ccc(Oc5ccc(-c6c(-c7ccccc7)c(*)nc7ccccc67)cc5)cc4)c3-c3ccccc3)cc2)cc1 (repeat unit)
17,83.00 °C,*CCN(CCOC(=O)c1cc(OCCN(C)c2ccc(S(=O)(=O)C(F)(F)C(F)(F)C(F)(F)C(F)(F)C(F)(F)C(F)(F)C(F)(F)C(F)(F)F)cc2)cc(C(=O)O*)c1)c1ccc(S(=O)(=O)C(F)(F)C(F)(F)C(F)(F)C(F)(F)C(F)(F)C(F)(F)C(F)(F)C(F)(F)F)cc1 (repeat unit)
18,212.00 °C,*c1ccc2c(c1)C(=O)N(c1ccc(Oc3ccc(N4C(=O)c5ccc(C(F)(F)C(F)(F)C(F)(F)C(*)(F)F)cc5C4=O)cc3)cc1)C2=O (repeat unit)
19,273.00 °C,*Oc1ccc(NC(=O)c2cccc(C(=O)Nc3ccc(Oc4ccc(C5(c6ccc(*)cc6)C6CC7CC(C6)CC5C7)cc4)cc3)c2)cc1 (repeat unit)
20,12.50 °C,*CC(*)(C)C(=O)OCCCN(C)c1ccc(N(C)C)cc1 (repeat unit)
21,115.00 °C,*Oc1c(-c2ccccc2)cc(Cc2cc(-c3ccccc3)c(OC(=O)CCCCC(*)=O)c(-c3ccccc3)c2)cc1-c1ccccc1 (repeat unit)
22,127.00 °C,*CC(*)c1ccc(C(=O)N2CCOCC2)cc1 (repeat unit)
23,405.00 °C,*c1ccc(-c2ccc(-c3c(-c4ccccc4)nc4ccc(-c5ccc6nc(-c7ccccc7)c(*)c(-c7ccccc7)c6c5)cc4c3-c3ccccc3)cc2)cc1 (repeat unit)
24,46.00 °C,*OCCOC(=O)CCCC(=O)OCCOc1nc(-c2ccc(OCCCC)cc2)nc(*)c1-c1ccc(OC)cc1 (repeat unit)
25,123.50 °C,*CC(*)c1ccc(N(c2ccccc2)c2ccccc2)cc1 (repeat unit)
26,97.00 °C,*CCCCCCCCCCCC(=O)Oc1ccc(C(C)(C)c2ccc(C(C)(C)c3ccc(OC(=O)c4ccc5c(c4)C(=O)N(*)C5=O)cc3)cc2)cc1 (repeat unit)
27,121.00 °C,*CCN(CCOC(=O)Nc1ccc(C)c(NC(=O)O*)c1)c1ccc(/C=C/c2cc[n+](CCCC)cc2)cc1 (repeat unit)

row,glass transition temperature,SMILES
1,239.00 °C,*C(=O)Nc1ccc(Oc2ccccc2-c2ccccc2Oc2ccc(NC(=O)c3ccc4c(c3)C(=O)N(c3ccc(Oc5ccc(N6C(=O)c7ccc(*)cc7C6=O)cc5)cc3)C4=O)cc2)cc1 (repeat unit)
2,108.00 °C,*c1ccc(C(C#N)(C(=O)OCCCC)C(*)(C#N)C(=O)OCCCC)cc1 (repeat unit)
3,190.00 °C,*Oc1ccc(C(c2ccc(OC(*)=O)cc2)C2CCCCC2)cc1 (repeat unit)
4,247.00 °C,*Oc1ccc(C(=O)CNc2ccc(S(=O)(=O)c3ccc(NCC(=O)c4ccc(*)cc4)cc3)cc2)cc1 (repeat unit)
5,187.00 °C,*Oc1ccc(-c2ccc(Oc3ccc(C(=O)c4ccc(C(=O)c5ccc(*)c(C(F)(F)F)c5)cc4)cc3C(F)(F)F)cc2)cc1 (repeat unit)
6,186.00 °C,*Oc1ccc(Oc2ccc(S(=O)(=O)c3ccc(Oc4ccc(C(=O)c5ccc(*)cc5)cc4)cc3)cc2)cc1 (repeat unit)
7,130.00 °C,*Oc1ccc(C(CCC)c2ccc(OC(*)=S)cc2)cc1 (repeat unit)
8,145.00 °C,*CC(*)(C)C(=O)Oc1ccc(/N=N/c2ccc([N+](=O)[O-])cc2)cc1 (repeat unit)
9,84.00 °C,*CCCCNC(=O)Cc1ccc(C(=O)N*)cc1 (repeat unit)
10,49.00 °C,*CC(*)(C)C(=O)OC(F)(F)C(F)(F)C(F)(F)C(F)(F)C(F)(F)C(F)(F)C(F)(F)C(F)(F)F (repeat unit)
11,84.00 °C,*Oc1ccc(Sc2ccc(Sc3ccc(Sc4ccc(*)cc4)cc3)cc2)cc1 (repeat unit)
12,258.00 °C,*c1ccc(Sc2cc3c(cc2Sc2ccc(N4C(=O)C5C6C=CC(C7C(=O)N(*)C(=O)C67)C5C4=O)cc2)C(=O)N(CCc2ccccc2)C3=O)cc1 (repeat unit)
13,119.00 °C,*Oc1ccc(-c2ccc(Oc3cccc(*)n3)cc2)cc1 (repeat unit)
14,285.00 °C,*c1ccc2c(c1)C(=O)N(c1ccc(NC(=O)C(F)(F)C(F)(F)C(F)(F)C(F)(F)C(=O)Nc3ccc(N4C(=O)c5ccc(C(*)(C(F)(F)F)C(F)(F)F)cc5C4=O)cc3)cc1)C2=O (repeat unit)
15,239.00 °C,*C(=O)c1ccc2c(c1)C(=O)N(c1cccc(C(c3cccc(N4C(=O)c5ccc(*)cc5C4=O)c3)(C(F)(F)F)C(F)(F)F)c1)C2=O (repeat unit)
16,89.00 °C,*CCN(*)C(=O)C(OC)(c1ccccc1)C(F)(F)F (repeat unit)
17,255.00 °C,*c1ccc(Oc2ccc3ccc(Oc4ccc(-c5nc(*)nc(-c6ccccc6)n5)cc4)cc3c2)cc1 (repeat unit)
18,151.00 °C,*C(=O)c1ccc(Oc2ccc(C(C)(C)c3ccc(Oc4ccc(*)s4)cc3)cc2)cc1 (repeat unit)
19,293.00 °C,*c1ccc(Oc2cc(C(C)(C)C)c(Oc3ccc(N4C(=O)c5ccc(-c6ccc7c(c6)C(=O)N(*)C7=O)cc5C4=O)cc3)cc2C(C)(C)C)cc1 (repeat unit)
20,83.00 °C,*CC(*)(CC(=O)OCC1CCCCC1)C(=O)OCC1CCCCC1 (repeat unit)
21,224.00 °C,*C(=O)Nc1ccc2c(c1)Cc1cc(NC(=O)c3ccc4c(c3)C(=O)N(c3ccc(NC(=O)Nc5ccc(N6C(=O)c7ccc(*)cc7C6=O)cc5)cc3)C4=O)ccc1-2 (repeat unit)
22,224.00 °C,*c1c(C)cc(C(c2cccnc2)c2cc(C)c(N3C(=O)CC(Nc4cccc(NC5CC(=O)N(*)C5=O)c4)C3=O)c(C)c2)cc1C (repeat unit)
23,373.50 ± 15 °C,*c1ccc(-c2ccc(-n3c(=O)c4cc5c(=O)n(*)c(=O)c5cc4c3=O)cc2OC(F)(F)F)c(OC(F)(F)F)c1 (repeat unit)
24,-1.00 °C,*CCOC(=O)CCCCCCC(=O)OCCOC(=O)c1ccc(C(=O)O*)cc1 (repeat unit)
25,67.50 °C,*c1cc(CCOC(=O)NCCCC)c(*)s1 (repeat unit)
26,-4.00 °C,*c1ccc(-c2sc(-c3ccc(-c4cc(CCCCCCCC)c(*)s4)cc3)cc2CCCCCCCC)cc1 (repeat unit)
27,146.00 °C,*CCC1CC(*)C2C3CC(C12)C(C)(C(=O)OC)C3 (repeat unit)

row,SMILES,glass transition temperature
1,*CCN(*)C(=O)C1CC1 (repeat unit),77.00 °C
2,*OC(C)CC(*)=O (repeat unit),3.40 °C
3,*Oc1cc(C)c(*)c(C)c1Br (repeat unit),280.1 °C
4,*/C=C/C1CC(*)C(C2CC=CCC2)C1 (repeat unit),105.00 °C
5,*CCCCCCC(=O)O* (repeat unit),-14.00 °C
6,*c1cccc(P(=O)(c2cccc(-n3c(=O)c4cc5c(=O)n(*)c(=O)c5c(-c5cc(C(F)(F)F)cc(C(F)(F)F)c5)c4c3=O)c2)c2cc(C(F)(F)F)cc(C(F)(F)F)c2)c1 (repeat unit),280.00 °C
7,*N=P(N=P(N=S(*)(=O)NCCCC)(NCCCC)NCCCC)(NCCCC)NCCCC (repeat unit),-16.00 °C
8,*CCCCCC(*)CCCCCC (repeat unit),-76.00 °C
9,*[O][Sn]([CH2]CCC)([CH2]CCC)[O]C(=O)c1ccc(C(*)=O)cc1 (repeat unit),315.00 °C
10,*CCN(*)C(=O)c1cc(F)c(F)cc1F (repeat unit),105.00 °C
11,*CC1CC(*)C(=O)OC1=O (repeat unit),140.00 °C
12,*C[Si](*)(C)CCCCCC (repeat unit),-77.60 °C
13,*c1ccc(Oc2ccc(P(=O)(c3ccccc3)c3ccc(Oc4ccc(-c5cc(*)n(-c6ccccc6)n5)cc4)cc3)cc2)cc1 (repeat unit),239.00 °C
